# Source: the supplement of paper PMC10307832
# Compound: C[C@@]1(C(=O)Nc2ccc(F)nc2)CCCN1c1nc(Nc2cc(C3CC3)n[nH]2)c2cccn2n1 + O=C(c1cc(Cc2n[nH]c(=O)c3ccccc23)ccc1F)N1CCN(C(=O)C2CC2)CC1 [Olaparib] (partner 8 µM)
# Assay: relative viability (nuclei count vs DMSO), 5 days (fraction); higher = more cells survive
# Details: first compound 0.4 µM
# Outline: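 Five library-drug doses in √10 steps were combined with a fixed anchor-drug dose, or a single drug was given alone, by pin tool to lung cancer cell lines in 1536-well plates the day after seeding. Nuclei were stained and counted after 5 days. Relative viability is the nuclei count in treated wells over that in vehicle wells, taken as the median of duplicate plates.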
row,Cell Line,relative viability
1,NCI-H838,0.555
2,LCLC-103H,0.518
3,NCI-H520,0.298
4,NCI-H2126,0.575
5,EMC-BAC-2,0.312
6,NCI-H2085,0.711
7,Calu-6,0.543
8,HCC-366,0.254
9,NCI-H1666,0.713
10,NCI-H596,0.608
11,LK-2,0.29
12,NCI-H2087,0.369
13,NCI-H1648,0.422
14,SK-MES-1,0.557
15,H3255,0.523
16,COR-L23,0.234
17,COR-L 105,0.571
18,IA-LM,0.658
19,LOU-NH91,0.828
20,ChaGo-K-1,0.402
21,NCI-H2170,0.488
22,NCI-H2405,0.598
23,HOP-62,0.386
24,HCC-44,0.867

row,Cell Line,relative viability
1,A549,0.148
2,NCI-H522,0.615
3,LU99A,0.231
4,BEN,0.97
5,HARA,0.59
6,SW 900,0.721
7,HCC-78,0.375
8,NCI-H322M,0.596
9,LCLC-97TM1,0.1
10,NCI-H2009,0.726
11,A-427,0.603
12,NCI-H441,0.345
13,NCI-H661,0.778
14,NCI-H1734,0.385
15,NCI-H460,0.346
16,NCI-H2347,0.48
17,SK-LU-1,0.396
18,NCI-H1395,0.408
19,201T,0.729
20,NCI-H1915,0.242
21,HCC-827,0.55
22,LXF-289,0.933
23,NCI-H23,0.225
24,NCI-H1299,0.887

row,Cell Line,relative viability
1,NCI-H647,0.368
2,CAL-12T,0.583
3,NCI-H1651,0.196
4,EPLC-272H,0.489
5,NCI-H2228,0.426
6,NCI-H1792,0.0767
7,NCI-H1355,0.561
8,NCI-H3122,0.581
9,NCI-H1437,0.576
10,NCI-H1755,0.759
11,NCI-H2023,0.333
12,HCC-15,0.611
13,NCI-H1793,0.475
14,PC-14,0.319
15,EKVX,0.635
16,LC-2-ad,0.581
17,NCI-H1944,0.362
18,NCI-H1975,0.626
19,RERF-LC-KJ,0.737
20,ABC-1,0.774
21,NCI-H358,0.183
22,NCI-H650,0.281
23,PC-3 [JPC-3],1.04

# Same assay, conditions: first compound 1.265 µM
row,Cell Line,relative viability
1,NCI-H2342,0.329
2,NCI-H727,0.416
3,NCI-H1650,0.729
4,EBC-1,0.391
5,NCI-H1703,0.357
6,NCI-H1993,0.662
7,SW 1573,0.253
8,NCI-H838,0.388
9,LCLC-103H,0.762
10,NCI-H520,0.291
11,NCI-H2126,0.76
12,EMC-BAC-2,0.334
13,NCI-H2085,0.819
14,Calu-6,0.384
15,HCC-366,0.215
16,NCI-H1666,0.724
17,NCI-H596,0.571
18,LK-2,0.35
19,NCI-H2087,0.482
20,NCI-H1648,0.7
21,SK-MES-1,0.373
22,H3255,0.548
23,COR-L23,0.188
24,COR-L 105,0.595
25,IA-LM,0.719
26,LOU-NH91,0.908

row,Cell Line,relative viability
1,ChaGo-K-1,0.422
2,NCI-H2170,0.601
3,NCI-H2405,0.511
4,HOP-62,0.404
5,HCC-44,0.911
6,A549,0.244
7,NCI-H522,0.596
8,LU99A,0.276
9,BEN,0.988
10,HARA,0.656
11,SW 900,0.717
12,HCC-78,0.427
13,NCI-H322M,0.664
14,LCLC-97TM1,0.229
15,NCI-H2009,0.663
16,A-427,0.529
17,NCI-H441,0.332
18,NCI-H661,0.634
19,NCI-H1734,0.436
20,NCI-H460,0.23
21,NCI-H2347,0.524
22,SK-LU-1,0.403
23,NCI-H1395,0.497
24,201T,0.9
25,NCI-H1915,0.257
26,HCC-827,0.716

row,Cell Line,relative viability
1,LXF-289,1.07
2,NCI-H23,0.21
3,NCI-H1299,0.964
4,NCI-H647,0.505
5,CAL-12T,0.449
6,NCI-H1651,0.201
7,EPLC-272H,0.571
8,NCI-H2228,0.32
9,NCI-H1792,0.161
10,NCI-H1355,0.572
11,NCI-H3122,0.723
12,NCI-H1437,0.59
13,NCI-H1755,0.851
14,NCI-H2023,0.122
15,HCC-15,0.635
16,NCI-H1793,0.772
17,PC-14,0.222
18,EKVX,0.735
19,LC-2-ad,0.492
20,NCI-H1944,0.492
21,NCI-H1975,0.476
22,RERF-LC-KJ,0.345
23,ABC-1,0.668
24,NCI-H358,0.233
25,NCI-H650,0.237
26,PC-3 [JPC-3],1.1
